In patent US20150181873A1, “HERBICIDE-RESISTANT SUNFLOWER PLANTS, POLYNUCLEOTIDES ENCODING HERBICIDE=RESISTANT ACETO HYDROXY ACID SYNTHASE LARGE SUBUNIT PROTEINS, AND METHODS OF USE” (NIDERA S.A., priority 2013, published 2015):

Assays:
[1] = system: wild-type sunflower plants; assay: Greenhouse imazamox spray test (FIG. 3/4), wild-type; type: in vivo, Helianthus annuus; conditions: imazamox 100 or 200 g ai/ha
Method: (§1) The S4897 and IMISUN-1 sunflower plants were spray-treated with imazamox at rate of 200 g ai/ha. […] The photograph was taken a few days after the plants were spray treated.
(§2) FIG. 4 is graphical illustration of herbicide injury in a greenhouse test following the spray treatment of IMISUN-1, wild-type, and S4897 sunflower plants with imazamox at either 100 (light columns) or 200 g ai/ha (dark columns). […] Herbicide injury was evaluated 17 days after the imazamox application.

[2] = system: Clearfield sunflower variety C; assay: Greenhouse spray injury rating, Clearfield variety C; type: in vivo, Helianthus annuus; conditions: scale 0-9
Source text: (§3) Sunflower lines S4897, Clearfield® sunflower varieties A, B, C and a conventional non-Clearfield variety were sprayed with three rates of imazamox (Raptor™), 100, 200 and 300 gm ai/ha plus 0.5% Sun It II and two rates of imazapyr (Arsenal™) 160 and 360 gm ai/ha plus 0.5% Sun It II when the plants were at the two to three leaf stage. Ratings were taken at 14 days after application (DAT) for injury. Injury was rated on a scale from 0 to 9 where 0=no injury to 9=dead plant. Twelve plants were sprayed per herbicide/rate treatment. Statistical analysis was conducted with STATGRAPHICS Plus 5.0 by using ANOVA and LSD procedures.
(§4) After plants were sprayed, it was realized that a height difference between S4897 and other sunflower varieties would have impacted the actual herbicide dose that was delivered. The spray boom height had been calibrated against S4897 and since the other varieties were taller and closer to the boom they would have received a greater dose of herbicide. Rates were recalibrated for the other varieties to determine the approximate dose they would have received. Assessments were made as presented in Table 2 since it was not possible to make a direct rate comparison due to the effect of the height. For example injury scores were compare for S4897 treated imazamox rate 100 gm ai/ha to the other varieties treated at 75 gm ai/ha. The treatment dose of 300 gm ai/ha for line S4897 was equivalent to the treatment of 200 gm ai/ha for the other varieties, which […].

[3] = system: Sunflower line S4897; assay: Greenhouse spray injury rating, line S4897; type: in vivo, Helianthus annuus
Source text: as §3, §4

[4] = system: Conventional non-Clearfield sunflower variety; assay: Greenhouse spray injury rating, conventional variety; type: in vivo, Helianthus annuus; conditions: scale 0-9
Source text: as §3, §4

[5] = system: S4897 sunflower plants; assay: Greenhouse imazamox spray test (FIG. 3/4), S4897; type: in vivo, Helianthus annuus; conditions: S4897 vs IMISUN-1 and wild-type; imazamox 100 and 200 g ai/ha; 17 days after application
Method: as §1, §2

[6] = system: Clearfield sunflower variety B; assay: Greenhouse spray injury rating, Clearfield variety B; type: in vivo, Helianthus annuus; conditions: scale 0-9
Source text: as §3, §4

[7] = system: AHAS of S4897 sunflower (Ala107-to-Thr AHASL1); assay: AHAS activity analysis of young leaves; type: biochemical, Helianthus annuus; conditions: S4897 vs Clearfield and conventional non-Clearfield variety; higher concentration of imazamox (FIG. 7)
Method: FIG. 7 is graphical illustration of a comparison of the inhibition of AHAS by Raptor for a non-Clearfield variety, a Clearfield variety and S4897 sunflower plants as described in Example 5.
FIG. 8 is graphical illustration of a comparison of the inhibition of AHAS by Glean for a non-Clearfield variety, a Clearfield variety and S4897 sunflower plants as described in Example 5.
AHAS activity analysis was also conducted by selecting actively growing young leaves from plants that were not sprayed with herbicide at approximately four weeks after planting.

[8] = system: Clearfield sunflower variety A; assay: Greenhouse spray injury rating, Clearfield variety A; type: in vivo, Helianthus annuus
Source text: as §3, §4

[9] = system: S4897 plants; assay: Field trial of resistance to imazapic; type: in vivo, Helianthus annuus; conditions: S4897 vs IMISUN-1 (Ala190-to-Val); field trials in Argentina; no data presented
Method: In field trials in Argentina, S4897 plants were tested for resistance to imazapic. […] This trial had single row plots and was treated on a windy day, so the actual herbicide dose reaching the plants was likely less than was applied.

[10] = imazamox 300 gm ai/ha, scale 0-9

COCc1cnc(C2=NC(C)(C(C)C)C(=O)N2)c(C(=O)O)c1 (stereo not shown) [Imazamox, imazamox] was tested, and the “survival following spray treatment” value [1] was “did not survive”, the “Injury at 14 DAT” value ([2]; imazamox 75 gm ai/ha (100/75)) was 1.8 b and the “Injury at 14 DAT” value ([2]; imazamox 150 gm ai/ha) was 2.9 b. The “Injury at 14 DAT” value ([2]; imazamox 300 gm ai/ha) was 4.6 b, the “Injury at 14 DAT” value ([3]; imazamox 100 gm ai/ha (100/75), scale 0=no injury to 9=dead plant) was 0.5 a and the “Injury at 14 DAT” value ([3]; imazamox 200 gm ai/ha (column 200/150), scale 0-9) was 0.8 a. The “Injury at 14 DAT” value ([3]; imazamox 200 gm ai/ha (column 200/150), scale 0-9, listed as imazamox) was “little to no injury”, the “Injury at 14 DAT” value [3, 10] was 0.8 a and the “Injury at 14 DAT” value ([3]; imazamox 300 gm ai/ha, scale 0-9, listed as imazamox) was “very little injury”. The “Injury at 14 DAT” value ([4]; imazamox 75 gm ai/ha (100/75)) was 7.2 days, the “Injury at 14 DAT” value ([4]; imazamox 150 gm ai/ha) was 8.2 days and the “Injury at 14 DAT” value ([4]; imazamox 300 gm ai/ha) was 8.7 e. For the same compound, the “herbicide injury / resistance or tolerance” value [5] was “significantly greater resistance or tolerance”, the “Injury at 14 DAT” value ([6]; imazamox 75 gm ai/ha (100/75)) was 1.9 b and the “Injury at 14 DAT” value ([6]; imazamox 150 gm ai/ha) was 4.8 c. The “Injury at 14 DAT” value ([6]; imazamox 300 gm ai/ha) was 5.3 c, the “inhibition of AHAS activity” value [7] was “less inhibition” and the “Injury at 14 DAT” value ([8]; imazamox 75 gm ai/ha (100/75), scale 0-9) was 4.3 c. The “Injury at 14 DAT” value ([8]; imazamox 150 gm ai/ha (column 200/150), scale 0-9) was 4.6 c, the “Injury at 14 DAT” value ([8]; imazamox 150 gm ai/ha (column 200/150), scale 0-9, listed as imazamox) was “significantly in juried and had stopped growing” and the “Injury at 14 DAT” value [8, 10] was 6.5 days.
Cc1cnc(C2=NC(=O)C(C)(C(C)C)N2)c(C(=O)O)c1 (stereo not shown) [imazapic] was tested, and the resistance to imazapic [9] was “clearly superior”.
